Test results reported in patent US20200392150A1, “Diaryl-B-Lactam Compound and Preparation Method and Pharmaceutical Use Thereof” (Fudan University, priority 2016, published 2020).
Entries after “also recorded” stand apart in the source; their conditions may differ. Read-outs that look alike come from different tables or passages of the source.

Legend:
A2780 cells xenograft = test: Xenografts tumor growth assay in nude mice; type: in vivo, Balb/c nude mice; details: i.p. once every 2 days, 69 7.5 mg/kg, 70 12.5 mg/kg, 97 4 or 8 mg/kg
Method: 6 weeks old female Balb/c nude mice were purchased from Shanghai Slac Laboratory Animal Co. Ltd. (Shanghai, China). 2*10^6 A2780 cells suspended in 0.2 mL PBS per mouse was injected subcutaneously into the nude mice. […] Administration of agents or vehicle, or agents and measurement of tumor volumes with a digital caliper was done once every 2 days. Tumor volumes were calculated as volume=shortest diameter (W)^2*longest diameter (L)*0.52. When the average tumor volumes of vehicle treated group reached 2000 mm^3 in diameter, the mice were sacrificed and the tumors were isolated and weighed. Visceral organs of the mice as well as solid tumors were further analyzed by H&E staining.

Pig brain tubulin = target: T1, Pig brain tubulin (Sus scrofa, UniProt P02550+P02554); test: In vitro tubulin polymerization assay; type: biochemical
T1 construct: purchased; host or cells: pig brain
Method: In vitro tubulin polymerization assay Pig brain tubulin was obtained commercially and stored in aliquots at −70° C. […] The absorbance of wavelength at 340 nm was detected every 1 min for 20 min by Spectra Max 190 spectrophotometer (Molecular Device) at 37° C. The results were indicated as mean values from three independent determinations.

[1] = tested on: VEGF induced angiogenesis; test: Matrigel plug assay; type: in vivo, Balb/C nude mice; details: nude mice, s.c. matrigel with 100 ng/mL VEGF-A165, 2 weeks
Method: 6 weeks old female Balb/C nude mice were purchased from Shanghai Slac Laboratory Animal Co. Ltd. (Shanghai, China). Matrigel containing 100 ng/mL human recombinant VEGF-A165 (Peprotech, Rocky Hill, N.J.) were mixed with indicated concentrations of 69, 70 and 97, or diluent (0.2% DMSO) as negative control at 4° C. Then, 0.5 mL of the matrigel mixture per mouse was injected subcutaneously into nude mice (n=4) in the dorsal region to generate matrigel plugs. 2 weeks later, the mice were sacrificed and matrigel plugs were recovered. Representative data from three independent experiments were shown.

cells = test: Cell apoptosis analysis (Annexin V/PI flow cytometry); type: cell-based; details: 48 h
Method: Cell apoptosis was detected using FITC Annexin V Apoptosis Detection Kit (BD Biosciences) according to manufacturer's instructions. Briefly, cells were incubated with indicated concentrations of 69, 70 and 97, CA-4 as positive control or diluent (0.2% DMSO) as negative control for 48 h. Then the cells were harvested, washed twice with PBS, and re-suspended in binding buffer. After being stained with Annexin-V and PI for 15 min in the dark place, cells were subjected to flow cytometry (Cytomics FC 500 MPL, Beckman Coulter) analysis. The results were indicated as mean values from three independent determinations.

[2] = tested on: p-histone H3, cyclin B1 and BuBR1 in HeLa cells; test: Cell cycle associated proteins assay; type: cell-based, human; details: 24 h, western blot and qPCR
Method: A. HeLa cells were treated with 69, 70, 97 or DMSO for 24 h. After being harvested, the cells were lysed, and the concentrations of total protein were determined by BCA protein assay kit (Beyotime, China). […] The membrane was blocked with 5% BSA in TBST for 1.5 h, then incubated overnight with specific primary antibodies (Proteintech) at 4° C. After being washed three times by TBST, the membrane was incubated with specific secondary antibodies (Abnova, Taipei, China) at room temperature for 2 h. Finally, chemiluminescent reagents (Millipore) were employed to detect the protein bands.
B. Quantitative PCR assay: HeLa cells were treated with 69, 70 or 97. The expression level of mRNA of target proteins was tested with qPCR kit (Takara).

Acute toxicity assay = type: in vivo; details: both sexes, mouse, in vivo, ip; KM mice, single intraperitoneal injection, 14 days
Method: KM mice were housed individually in a specific pathogen free facility. Groups of mice (n=10 per group, half male and half female) were injected intraperitoneally once with various dosages of 69 (95, 70, 50, 35, 25 mg/kg), 70 (500, 425, 350, 275, 200 mg/kg), 97 (275, 200, 150, 125 and 100 mg/kg) or vehicle (8.3% cremohorp EL and 8.3% alcohol in PBS) as negative control, respectively. 69, 70 and 97 was dissolved in cremeohore EL and alcohol mixture (1:1, v/v) and further diluted with PBS (1:5, v/v). The death of mice were monitored daily and recorded up to 14 days after injection.

MDA-MB-231 = test: In vitro cell growth inhibition assay (MTT); type: cell-based, human; details: MDA-MB-231 human breast cancer cell line, 48 h, MTT; read-out: IC50 MDA-MB-231
In short: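 5000 cells/well, overnight attachment; compounds 48 h (vehicle 0.2% DMSO); MTT 0.5 mg/mL, 4 h, 37° C; formazan in DMSO; A540. IC50 from growth inhibition rates.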

Hela = test: In vitro cell growth inhibition assay (MTT); type: cell-based, human; details: Hela human cervical cancer cell line, 48 h, MTT; read-out: IC50 Hela
In short: (§1)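 Following overnight adherence of 5000 cells per well, compounds or 0.2% DMSO were applied for 48 h. Medium was then swapped for 0.5 mg/mL MTT medium (4 h, 37° C), crystals dissolved in DMSO, and plates read at 540 nm.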

SKOV3 = test: In vitro cell growth inhibition assay (MTT); type: cell-based, human; details: SK-OV-3; SKOV-3 human ovarian cancer cell line, 48 h, MTT; read-out: IC50 SKOV3
In short: as §1

A2780 = test: In vitro cell growth inhibition assay (MTT); type: cell-based, human; details: A2780 human ovarian cancer cell line, 48 h, MTT; read-out: IC50 A2780
In short: as §1

T1 sequence (P02554 whole entry): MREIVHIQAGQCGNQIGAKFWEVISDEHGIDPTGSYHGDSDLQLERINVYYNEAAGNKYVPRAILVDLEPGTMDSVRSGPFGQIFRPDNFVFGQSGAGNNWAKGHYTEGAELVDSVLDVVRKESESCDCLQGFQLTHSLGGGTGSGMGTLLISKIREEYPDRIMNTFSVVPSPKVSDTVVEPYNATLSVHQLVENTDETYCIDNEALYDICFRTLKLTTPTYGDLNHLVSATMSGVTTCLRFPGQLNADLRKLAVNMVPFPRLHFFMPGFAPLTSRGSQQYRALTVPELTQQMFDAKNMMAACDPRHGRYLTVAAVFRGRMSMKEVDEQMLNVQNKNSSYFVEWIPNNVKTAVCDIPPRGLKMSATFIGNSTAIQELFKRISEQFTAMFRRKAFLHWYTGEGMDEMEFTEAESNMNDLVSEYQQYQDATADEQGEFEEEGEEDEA
T1 sequence (P02550 whole entry): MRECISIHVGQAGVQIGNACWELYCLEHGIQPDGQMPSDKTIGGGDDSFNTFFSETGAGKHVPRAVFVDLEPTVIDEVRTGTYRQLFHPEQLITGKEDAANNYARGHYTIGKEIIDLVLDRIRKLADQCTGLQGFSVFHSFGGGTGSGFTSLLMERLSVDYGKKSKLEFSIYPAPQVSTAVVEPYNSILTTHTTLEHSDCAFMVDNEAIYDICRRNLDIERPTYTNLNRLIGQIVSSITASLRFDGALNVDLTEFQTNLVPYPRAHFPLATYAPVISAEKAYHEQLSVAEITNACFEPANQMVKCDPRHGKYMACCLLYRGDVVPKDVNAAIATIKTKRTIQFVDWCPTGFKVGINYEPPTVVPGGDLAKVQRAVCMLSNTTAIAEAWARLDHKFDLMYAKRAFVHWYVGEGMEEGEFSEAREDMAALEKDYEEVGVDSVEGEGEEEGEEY

SMILES | H&E staining of liver, kidney and spleen (A2780 cells xenograft) | H&E staining of tumor sections (A2780 cells xenograft) | mouse body weight (A2780 cells xenograft) | tumor growth in vivo (A2780 cells xenograft) | IC50 (Pig brain tubulin) | VEGF induced angiogenesis in matrigel plugs [1] | cellular apoptosis (cells) | expression of p-histone H3, cyclin B1 and BuBR1 [2] | LD50 at 14 days (Acute toxicity assay) | IC50 (MDA-MB-231) | IC50 (Hela) | IC50 (SKOV3) | IC50 (A2780) | IC50 (Pig brain tubulin; pig brain tubulin, absorbance 340 nm, 20 min, 37° C., read-out: IC50 disruption of tubulin assembly)
COc1ccc([C@H]2[C@H](CO)C(=O)N2c2cc(OC)c(OC)c(OC)c2)cc1O [Compound 69, (3R,4R)-4-(3-hydroxy-4-methoxyphenyl)-3-(hydroxymethyl)-1-(3,4,5-trimethoxyphenyl)azetidin-2-one] | no abnormal areas are observed in tissue staining of liver, kidney and spleen; also recorded: no detectable abnormalities were observed in liver, kidney and spleen | cause tumor tissue to produce necrotic areas; also recorded: extensive areas of necrosis or cell death | no significant influence on mouse body weight; also recorded: no significant weight loss observed | significantly inhibit tumor growth in vivo; also recorded: anti-tumor activities in vivo | 3500 nM | significantly inhibit VEGF-mediated neovascularization; also recorded: suppressed VEGF induced angiogenesis | significantly promote apoptosis; also recorded: significantly induce cellular apoptosis | significantly promote the expression of phosphorylated histone H3, cyclinB1, and mitotic checkpoint protein BuBR1; also recorded: significantly induce the expression of p-histone H3, cyclin B1 and BuBR1 |  |  |  |  |  | 
COc1ccc([C@H]2[C@@H](C)C(=O)N2c2cc(OC)c(OC)c(OC)c2)cc1O [Compound 70, (3R,4R)-4-(3-hydroxy-4-methoxyphenyl)-3-methyl-1-(3,4,5-trimethoxyphenyl)azetidin-2-one] | no abnormal areas are observed in tissue staining of liver, kidney and spleen; also recorded: no detectable abnormalities were observed in liver, kidney and spleen | cause tumor tissue to produce necrotic areas; also recorded: extensive areas of necrosis or cell death | no significant influence on mouse body weight; also recorded: no significant weight loss observed | significantly inhibit tumor growth in vivo; also recorded: anti-tumor activities in vivo | 1700 nM | significantly inhibit VEGF-mediated neovascularization; also recorded: suppressed VEGF induced angiogenesis | significantly promote apoptosis; also recorded: significantly induce cellular apoptosis | significantly promote the expression of phosphorylated histone H3, cyclinB1, and mitotic checkpoint protein BuBR1; also recorded: significantly induce the expression of p-histone H3, cyclin B1 and BuBR1 | > 500 mg/kg | 67 nM | 74 nM | 51 nM | 35 nM | 
COc1ccc([C@H]2[C@H](C)C(=O)N2c2cc(OC)c(OC)c(OC)c2)cc1O [Compound 97, (3S,4R)-4-(3-hydroxy-4-methoxyphenyl)-3-methyl-1-(3,4,5-trimethoxyphenyl)azetidin-2-one] | no abnormal areas are observed in tissue staining of liver, kidney and spleen; also recorded: no detectable abnormalities were observed in liver, kidney and spleen | cause tumor tissue to produce necrotic areas; also recorded: extensive areas of necrosis or cell death | no significant influence on mouse body weight; also recorded: no significant weight loss observed | significantly inhibit tumor growth in vivo; also recorded: anti-tumor activities in vivo |  | significantly inhibit VEGF-mediated neovascularization; also recorded: suppressed VEGF induced angiogenesis | significantly promote apoptosis; also recorded: significantly induce cellular apoptosis | significantly promote the expression of phosphorylated histone H3, cyclinB1, and mitotic checkpoint protein BuBR1; also recorded: significantly induce the expression of p-histone H3, cyclin B1 and BuBR1 |  | 3 nM | 1 nM | 3 nM | 2 nM | 1600 nM
